Assay results published in publication PMC11860126, “X-Ray Irradiation Induces Oxidative Stress and Upregulates Intestinal Nrf2-Mrp2 Pathway, Leading to Decreased Intestinal Absorption of Valsartan” (Pharmaceutics, 2025).
Read-outs that look alike come from different tables or passages of the source.

Columns and labels:
[1] = In vivo pharmacokinetics of valsartan in rat plasma, with or without abdominal X-ray irradiation; set-up: species or system Sprague Dawley (SD) rats; details: for AUC(0-inf) / Cmax / AUC(0-t) / MRT last / Tmax / half-life: male, Sprague-Dawley, rat, plasma, po, 10 mg/kg; for AUC(0-t): read-out: AUC0–24h; for MRT last: read-out: MRT0–24h; for half-life / t1/2: valsartan 10 mg/kg by gavage, Mean ± SD, n = 6
Procedure: Valsartan was administered by gavage (10 mg/kg) after forming a homogeneous suspension (2 mg/mL) with 1% CMC-Na by grinding and stirring. Before and after administration (0.083, 0.25, 0.5, 1, 2, 4, 6, 8, 12, and 24 h), the rats in group A (n = 6) and group B (n = 6) were anesthetized with isoflurane. Blood samples were collected by the orbital blood sampling method, and whole blood was collected by blood collection tubes coated with heparin sodium. Plasma samples were obtained by centrifugation at 16,260× g for 10 min. Quantitative analysis of LC-MS/MS results was performed using Analyst 1.6.3 program. The pharmacokinetic parameters were calculated using the WinNonlin 8.3 program. SPSS Statistic 20.0 software was used for statistical analysis. One-way ANOVA was used for comparison among multiple groups, and p < 0.05 was considered statistically significant. GraphPad Prism 8.0.2 software was used for generating figures.

[2] = set-up: method as in PMID 28507434; details: cited from earlier work
[3] = VAL bile secretion assay in bile duct cannulated rats; assay type: in vivo, Sprague Dawley (SD) rats; details: 10 mg/kg by gavage
Excerpt: For the VAL bile secretion assay, six rats in each group, A and B, underwent bile duct cannulation prior to administration. After anesthesia, the abdominal cavity of the rats was opened, followed by separation and ligation of the distal end of the common bile duct. A small opening was made at the front end of the ligation to insert a catheter, which was then ligated and fixed before suturing the abdominal cavity. Bile was collected through a catheter. The rats were maintained under anesthesia with intraperitoneal injection of normal saline and glucose to ensure stable vital signs. Following surgery, valsartan (10 mg/kg) was administered via gavage, and bile samples were collected at different time points post-administration. The collected bile samples were mixed with 50% methanol–water (ratio 1:9), centrifuged to obtain the supernatant for analysis.

[4] = cited from earlier work
[5] = VAL urinary and fecal excretion assay (metabolic cages); details: rats, 10 mg/kg by gavage
Procedure: Male Sprague Dawley (SD) rats (weight 200 ± 20 g) were purchased from Beijing Vital River Laboratory Animal Co., LTD. […] The rats were fed a maintenance diet and had free access to water. All rats were adaptively fed for three days before the experiment and randomly divided into a control group (A) and irradiation group (B). There were 6 rats in group A and B in each study. […] The samples collected were processed and then stored at −80 °C until analysis.
For the VAL urinary and fecal excretion assay, six rats in each group, A and B, were randomly assigned to metabolic cages and administered valsartan (10 mg/kg) via gavage. […] The resulting supernatant was collected as the analytical samples.
The excretion of valsartan was calculated by the concentration and sample volume (or weight), and the fractional excretion of valsartan and the cumulative excretion fraction of valsartan in each time period were obtained through comparison with the corresponding dose administered to the rat.

[6] = Ex vivo inverted intestinal sac absorption study; assay type: in vitro ADME, Sprague Dawley (SD) rats; details: for concentration of valsartan in the intestinal sac at the final time point: KRB buffer 37 °C containing 10 mM VAL, n = 6
Procedure: Six rats in groups A and B were anesthetized with isoflurane, followed by the opening of the abdominal cavity to separate a 10 cm segment of the jejunum. The distal end of the jejunal segment was ligated in Krebs–Ringer Solution (KRB), and the resulting intestinal sac was turned inside out from the proximal end to form an inverted intestinal sac. Subsequently, 1 mL of KRB buffer at 37 °C was added to the inverted intestinal sac, which was then equilibrated in oxygen-saturated KRB buffer (37 °C) for 5 min. The flipped intestinal sac was transferred to oxygen-saturated KRB buffer (37 °C) containing 10 mM VAL, initiating the timing process. At different time points, 50 μL of solution from the flipped intestinal sac was aspirated and supplemented with an equal volume (50 μL) of blank KRB buffer.

[7] = set-up: method as in PMID 28438473, PMID 22204725, PMID 27749456; details: clinical studies; cited from earlier work
[8] = 10 mg/kg by gavage, Control group
[9] = IR-5 Gy vs control, 10 mg/kg by gavage, p < 0.05
[10] = IR-5 Gy (abdominal X-ray 24 h before)

`CCCCC(=O)N(Cc1ccc(-c2ccccc2-c2nnn[nH]2)cc1)[C@H](C(=O)O)C(C)C` [valsartan, Valsartan] gave a CL [1, 8] of 20 ± 5.87 mL/min/kg, a Vd [1, 8] of 6.254 ± 2.349 L/kg and a CL ([1]; 10 mg/kg by gavage, IR-5 Gy) of 35.33 ± 18.5 mL/min/kg. For the same compound, the Vd ([1]; 10 mg/kg by gavage, IR-5 Gy) was 14.668 ± 9.456 L/kg, the “prolongation of plasma half-life (t1/2) in the IR group” value ([1]; IR-5 Gy vs control, 10 mg/kg by gavage) was 41% and the “decrease of AUC0–24h in the IR group” value [1, 9] was 37%. The “decrease of Cmax in the IR group” value [1, 9] was 52%, the AUC(0-inf) [1, 8] was 8810 ± 2010 ng·h/mL and the Cmax [1, 8] was 4430 ± 1260 ng/mL. For the same compound, the AUC(0-t) [1, 8] was 8460 ± 1840 ng·h/mL, the MRT last [1, 8] was 3.84 ± 0.724 h and the Tmax ([1]; 10 mg/kg by gavage, Control group, read-out: Tmax) was 0.25 h. The Tmax ([1]; 10 mg/kg by gavage, Figure 1, read-out: time of peak plasma concentration) was roughly 0.25 h, the AUC(0-inf) ([1]; 10 mg/kg by gavage, IR-5 Gy) was 5470 ± 1790 ng·h/mL and the Cmax ([1]; 10 mg/kg by gavage, IR-5 Gy) was 2130 ± 878 ng/mL. The AUC(0-t) ([1]; 10 mg/kg by gavage, IR-5 Gy) was 5270 ± 1830 ng·h/mL, the MRT last ([1]; 10 mg/kg by gavage, IR-5 Gy) was 4.52 ± 1.63 h and the Tmax ([1]; 10 mg/kg by gavage, IR-5 Gy, read-out: Tmax) was 0.222 ± 0.068 h. For the same compound, the half-life ([1]; Control group) was 3.57 h, the half-life [1, 10] was 5.03 h and the t1/2 ([1]; Control group) was 3.568 ± 0.411 h. For the same compound, the t1/2 [1, 10] was 5.032 ± 2.656 h, the bioavailability [2] was 23% and the “cumulative fractional bile excretion” value ([3]; IR group, 15 h) was 10.83 % of the dose. The “cumulative fractional bile excretion” value ([3]; IR group, 18 h) was 11.52 % of the dose, the “cumulative fractional bile excretion” value ([3]; IR group, 24 h) was 12.67 % of the dose and the “cumulative fractional bile excretion” value ([3]; control group, 15 h) was 22.89 % of the dose. The “cumulative fractional bile excretion” value ([3]; control group, 18 h) was 26.24 % of the dose, the “cumulative fractional bile excretion” value ([3]; control group, 24 h) was 31.26 % of the dose and the “fraction absorbed into the liver, secreted into the bile and passed into the feces along with unabsorbed valsartan” value [4] was greater than 80%. The “amount excreted in the urine” value ([5]; Figure 2D) was “very small amount”, the “cumulative excretion in feces” value ([5]; group not stated) was 83% and the “concentration of valsartan in the intestinal sac at the final time point” value ([6]; IR group) was 127 ± 32.94 ng/mL. The “concentration of valsartan in the intestinal sac at the final time point” value ([6]; control group) was 205.6 ± 51.72 ng/mL and the “reduction of valsartan concentration in the intestinal sac, IR vs control” value ([6]; final time point) was 38%.
In the case of bevacizumab, the “incidence of hypertension associated with treatment” value [7] is given as 26% to 55.
